Test results from PMC6271933, “Evaluation of the Toxicity of 5-Aryl-2-Aminoimidazole-Based Biofilm Inhibitors against Eukaryotic Cell Lines, Bone Cells and the Nematode Caenorhabditis elegans” (Molecules, 2014).
Where “and” joins values, the source holds several entries; their conditions need not be identical. Equal values may be shown once.

Legend:
[1] = test system: HMO2, HepG2, HeLa and mouse lymphoma cells; set-up: method as in PMID 12193030, PMID 15165143, PMID 17822294; conditions: including HMO2, HepG2, HeLa and mouse lymphoma cells; cited from earlier work
human T-lymphocyte (CEM) = experiment: Cytostatic activity against tumor cell lines (cell number by Coulter counter); assay type: cell-based; conditions: 72 h, concentration inhibiting cell proliferation by 50%, three days incubation, mean of three repeats
Protocol: (§1) The IC50 was defined as the compound concentration required to inhibit cell proliferation by 50%. The therapeutic index (TI) was calculated as the ratio of the compound concentration producing toxicity (IC50) to the concentration needed to exert the desired ‘therapeutic’ effect on biofilms of Salmonella and Pseudomonas, indicated by the BIC50 (dose needed to prevent biofilm formation by 50%). The higher the therapeutic index, the broader the safety window of the compound.
(§2) Murine leukemia (L1210), human T-lymphocyte (CEM) and human cervix carcinoma (HeLa) were suspended at 300,000–500,000 cells/mL of culture medium, and 100 µL of a cell suspension was added to 100 µL of an appropriate dilution of the test compounds in 200 µL-wells of 96-well microtiter plates. After incubation at 37 °C for two (L1210), three (CEM) or four (HeLa) days, the cell number was determined using a Coulter counter. The IC50 was defined as the compound concentration required to inhibit cell proliferation by 50%.

[2] = test system: human cervix carcinoma (HeLa); experiment: as above; assay type: cell-based; conditions: 96 h, concentration inhibiting cell proliferation by 50%, four days incubation, mean of three repeats
Protocol: as §1, §2

murine leukemia (L1210) = experiment: as above; assay type: cell-based; conditions: Mus musculus, L1210, 48 h; concentration inhibiting cell proliferation by 50%; two days incubation; mean of three repeats
Protocol: as §1, §2

C. elegans = assay type: in vivo, Caenorhabditis elegans; conditions: for C. elegans % survival at 25 µM: after 7 days relative to viability at day 0, mean of at least two repeats
Protocol: Eggs of a double mutant (glp-4Dsek-1D) of C. elegans were grown on NGM/OP50 agar plates (NGM agar plates on the surface inoculated with 100 µL of an overnight culture of OP50 Escherichia coli and stored at 4 °C until use) at 25 °C until all nematodes had reached the L4 stage. Worms were collected and washed with M9 buffer (3 g/L KH2PO4, 6 g/L Na2HPO4, 5 g/L NaCl, 1 mM MgSO4). For toxicity testing, 40 to 50 worms were suspended in 250 μL M9 (supplemented with 10 µg/mL cholesterol, 75 µg/mL ampicillin and 100 µg/mL kanamycin) buffer in each well of 24-well microtiter plates, in the presence or absence (0.5% DMSO control) of 25, 100 or 200 µM of the test compounds and grown for 7 days at 25 °C. The percentage survival of the worms in the presence or absence of anti-biofilm compounds was calculated after 7 days relative to their viability at day 0.

S. Typhimurium biofilm = conditions: concentration preventing biofilm formation (at 25 °C) by 50%; as previously reported ref 13, 14, 15, 16; read-out: BIC50 S. Typhimurium; cited from earlier work
P. aeruginosa biofilm = conditions: concentration preventing biofilm formation (at 25 °C) by 50%; as previously reported ref 13, 14, 15, 16; read-out: BIC50 P. aeruginosa; cited from earlier work

Compound	cytotoxicity to a variety of cell lines [1]	IC50 (human T-lymphocyte (CEM))	IC50 [2]	IC50 (murine leukemia (L1210))	C. elegans % survival at 25 µM (C. elegans)	effect on C. elegans survival at 100 µM (C. elegans; 100 µM, 7 days of exposure)	effect on C. elegans survival at 200 µM (C. elegans; 200 µM, 7 days of exposure)	IC50 (S. Typhimurium biofilm)	IC50 (P. aeruginosa biofilm)
COc1ccc(Cc2nc(N)n(C)c2Cc2cc(O)c(OC)c(OC)c2)cc1 [2e, naamine C]	cytotoxic								
COc1ccc(Cc2nc(N)n(C)c2Cc2cc(O)c(OC)c(O)c2)cc1 [2f, naamine E]	cytotoxic								
COc1ccc(Cc2nc(N)n(C)c2Cc2ccc(O)c(OC)c2)cc1 [2g, naamine F]	cytotoxic								
COc1ccc(Cc2[nH]c(=N)n(C)c2Cc2cc(OC)c(O)c(OC)c2)cc1 [2h, naamine G]	cytotoxic								
Nc1ncc(-c2ccccc2)[nH]1 [compound 1]		94.3 µM	145 µM	62.9 µM	89.8%	none of the compounds significantly affect	do not significantly affect survival	130 µM	72.6 µM
Nc1ncc(-c2ccc(Cl)cc2)[nH]1 [compound 2]		49.6 µM	72.3 µM	77.5 µM	84.9%			16 µM	3.5 µM
Nc1ncc(-c2ccc(-c3ccccc3)cc2)[nH]1 [compound 3]		13.6 µM	34 µM	37.4 µM				17.3 µM	8.6 µM
Nc1ncc(-c2ccc([N+](=O)[O-])cc2)[nH]1 [compound 4]		63.7 µM	108 µM	83.3 µM	97.3%			17.6 µM	34.5 µM
Nc1ncc(-c2ccc(Br)cc2)[nH]1 [compound 5, 5-(p-bromophenyl)-2-aminoimidazole]		13.9 µM	21.8 µM	10.1 µM	90.6%			47.9 µM	3.2 µM
CCCCCCCCn1c(-c2ccccc2)cnc1N [compound 6]		468 µM	3 µM	3.2 µM	92.5%			11.9 µM	18.5 µM
CCCCCCCCCCCCCn1c(-c2ccc(Cl)cc2)cnc1N [compound 8]		6.4 µM	4.5 µM	7.2 µM				19.5 µM	33.9 µM
CCCCCCCn1c(-c2ccc(-c3ccccc3)cc2)cnc1N [compound 9]		8.1 µM	8.7 µM	7.5 µM				9.3 µM	25.2 µM
CCCCCCCCn1c(-c2ccc(-c3ccccc3)cc2)cnc1N [compound 10]		8.3 µM	6.6 µM	7.8 µM				3.3 µM	8.9 µM
Nc1ncc(-c2ccc(-c3ccccc3)cc2)n1C1CCCC1 [compound 11]		2.9 µM	8.2 µM	4.3 µM				7.5 µM	353 µM
Nc1ncc(-c2ccc(-c3ccccc3)cc2)n1C1CCCCCC1 [compound 12]		5.4 µM	6.6 µM	8.1 µM				~12.5 µM and 12.5 µM	6.6 µM
Nc1ncc(-c2ccc(-c3ccccc3)cc2)n1C1CCCCCCC1 [compound 13]		4.9 µM	6.9 µM	6.9 µM				~22.9 µM and 22.9 µM	3.2 µM
CCCCCCCCn1c(-c2ccc(F)cc2)cnc1N [compound 14]		7.3 µM	8.6 µM	3.5 µM				~10.8 µM and 10.8 µM	4.9 µM
CCCCCCCCn1c(-c2ccc(SC)cc2)cnc1N [compound 15, N1-octyl-5-[4-SMePh]-2AI]		7.2 µM	6.3 µM	4.1 µM				6.7 µM	2.8 µM
CCCCCCCCn1c(-c2cccc(Br)c2)cnc1N [compound 16]		9.7 µM	8 µM	6.9 µM				11.2 µM	40.6 µM
